Measured values taken from ChEMBL document CHEMBL3822440, “Semi-synthesis and antiproliferative evaluation of PEGylated pentacyclic triterpenes” (Eur J Med Chem, 2016).
The source made the active and inactive calls. No cut-off for these calls is given here.

Legend:
[1] = Cytotoxicity against mouse B16F10 cells assessed as growth inhibition after 72 hrs by MTT assay; format: functional, cell-based; details: B16-F10, 72 h
HepG2 [2] = assay: Potency index, ratio of maslinic acid IC50 to compound IC50 for human HepG2 cells; format: functional
[3] = Induction of apoptosis in mouse B16F10 cells assessed as live cells at cytotoxic IC50 after 72 hrs by Annexin V-FITC/propidium iodide staining based flow cytometry (reference value: 97.55 +/- 0.5%); format: functional, B16-F10
[4] = Induction of apoptosis in mouse B16F10 cells assessed as early apoptotic cells at cytotoxic IC50 after 72 hrs by Annexin V-FITC/propidium iodide staining based flow cytometry (reference value: 0.75 +/- 0.07%); format: functional, B16-F10
[5] = Induction of apoptosis in mouse B16F10 cells assessed as necrotic cells at cytotoxic IC50 after 72 hrs by Annexin V-FITC/propidium iodide staining based flow cytometry (reference value: 0.75 +/- 0.07%); format: functional, B16-F10
HT-29 [6] = assay: Induction of apoptosis in human HT-29 cells assessed as live cells at cytotoxic IC50 after 72 hrs by Annexin V-FITC/propidium iodide staining based flow cytometry (reference value: 96.65 +/- 0.78%); format: functional
HT-29 [7] = assay: Induction of apoptosis in human HT-29 cells assessed as late apoptotic cells at cytotoxic IC50 after 72 hrs by Annexin V-FITC/propidium iodide staining based flow cytometry (reference value: 0.65 +/- 0.35%); format: functional
HT-29 [8] = assay: Induction of apoptosis in human HT-29 cells assessed as necrotic cells at cytotoxic IC50 after 72 hrs by Annexin V-FITC/propidium iodide staining based flow cytometry (reference value: 1.05 +/- 0.35%); format: functional
HepG2 [9] = assay: Induction of apoptosis in human HepG2 cells assessed as live cells at cytotoxic IC50 after 72 hrs by Annexin V-FITC/propidium iodide staining based flow cytometry (reference value: 99.55 +/- 0.07%); format: functional
HepG2 [10] = assay: Induction of apoptosis in human HepG2 cells assessed as late apoptotic cells at cytotoxic IC50 after 72 hrs by Annexin V-FITC/propidium iodide staining based flow cytometry relative to control; format: functional
HepG2 [11] = assay: Induction of apoptosis in human HepG2 cells assessed as necrotic cells at cytotoxic IC50 after 72 hrs by Annexin V-FITC/propidium iodide staining based flow cytometry (reference value: 0.1 +/- 0.01%); format: functional
HT-29 [12] = assay: Cell cycle arrest in human HT-29 cells assessed as accumulation at G0/G1 phase at cytotoxic IC50 after 72 hrs by propidium iodide staining based flow cytometry (reference value: 55.18 +/- 0.22%); format: functional
HT-29 [13] = assay: Cell cycle arrest in human HT-29 cells assessed as accumulation at S phase at cytotoxic IC50 after 72 hrs by propidium iodide staining based flow cytometry (reference value: 48.31 +/- 1.49%); format: functional
HT-29 [14] = assay: Cell cycle arrest in human HT-29 cells assessed as accumulation at G2/M phase at cytotoxic IC50 after 72 hrs by propidium iodide staining based flow cytometry (reference value: 6.23 +/- 1.7%); format: functional
HepG2 [15] = assay: Cell cycle arrest in human HepG2 cells assessed as accumulation at G0/G1 phase at cytotoxic IC50 after 72 hrs by propidium iodide staining based flow cytometry (reference value: 39.41 +/- 1.56%); format: functional
HepG2 [16] = assay: Cell cycle arrest in human HepG2 cells assessed as accumulation at S phase at cytotoxic IC50 after 72 hrs by propidium iodide staining based flow cytometry (reference value: 54.71 +/- 2.37%); format: functional
HepG2 [17] = assay: Cell cycle arrest in human HepG2 cells assessed as accumulation at G2/M phase at cytotoxic IC50 after 72 hrs by propidium iodide staining based flow cytometry (reference value: 8.47 +/- 2.55%); format: functional
[18] = Disruption of mitochondrial membrane potential in mouse B16F10 cells assessed as rhodamine123 positive cells at cytotoxic IC50 after 72 hrs by propidium iodide staining based fluorescence spectroscopic analysis (reference value: 95.6 +/- 0.57%); format: functional, B16-F10
[19] = Disruption of mitochondrial membrane potential in mouse B16F10 cells assessed as rhodamine123 negative cells at cytotoxic IC50 after 72 hrs by propidium iodide staining based fluorescence spectroscopic analysis (reference value: 4.45 +/- 0.64%); format: functional, B16-F10
HT-29 [20] = assay: Disruption of mitochondrial membrane potential in human HT-29 cells assessed as rhodamine123 positive cells at cytotoxic IC50 after 72 hrs by propidium iodide staining based fluorescence spectroscopic analysis (reference value: 94.25 +/- 0.35%); format: functional
HepG2 [21] = assay: Disruption of mitochondrial membrane potential in human HepG2 cells assessed as rhodamine123 positive cells at cytotoxic IC50 after 72 hrs by propidium iodide staining based fluorescence spectroscopic analysis (reference value: 88.3 +/- 8.87%); format: functional
B16-F10 [22] = assay: Induction of apoptosis in mouse B16F10 cells assessed as nucleus containing nicked DNA at cytotoxic IC50 after 72 hrs by Hoechst staining based fluorescence microscopic analysis; format: functional, cell-based
B16-F10 [23] = assay: Induction of apoptosis in mouse B16F10 cells assessed as cell shrinkage at cytotoxic IC50 after 72 hrs by Hoechst staining based fluorescence microscopic analysis; format: functional
B16-F10 [24] = assay: Induction of apoptosis in mouse B16F10 cells assessed as spherical cell shape at cytotoxic IC50 after 72 hrs by Hoechst staining based fluorescence microscopic analysis; format: functional
B16-F10 [25] = assay: Induction of apoptosis in mouse B16F10 cells assessed as chromatin condensation at cytotoxic IC50 after 72 hrs by Hoechst staining based fluorescence microscopic analysis; format: functional, cell-based
B16-F10 [26] = assay: Induction of apoptosis in mouse B16F10 cells assessed as loss of nuclear architecture at cytotoxic IC50 after 72 hrs by Hoechst staining based fluorescence microscopic analysis; format: functional, cell-based
B16-F10 [27] = assay: Induction of apoptosis in mouse B16F10 cells assessed as disruption of cell membrane integrity at cytotoxic IC50 after 72 hrs by Hoechst staining based fluorescence microscopic analysis; format: functional
HT-29 [28] = assay: Induction of apoptosis in human HT-29 cells assessed as nucleus containing nicked DNA at cytotoxic IC50 after 72 hrs by Hoechst staining based fluorescence microscopic analysis; format: functional, cell-based
HT-29 [29] = assay: Induction of apoptosis in human HT-29 cells assessed as spherical cell shape at cytotoxic IC50 after 72 hrs by Hoechst staining based fluorescence microscopic analysis; format: functional
HT-29 [30] = assay: Induction of apoptosis in human HT-29 cells assessed as disruption of cell membrane integrity at cytotoxic IC50 after 72 hrs by Hoechst staining based fluorescence microscopic analysis; format: functional
HepG2 [31] = assay: Induction of apoptosis in human HepG2 cells assessed as cell shrinkage at cytotoxic IC50 after 72 hrs by Hoechst staining based fluorescence microscopic analysis; format: functional
HepG2 [32] = assay: Induction of apoptosis in human HepG2 cells assessed as spherical cell shape at cytotoxic IC50 after 72 hrs by Hoechst staining based fluorescence microscopic analysis; format: functional
HepG2 [33] = assay: Induction of apoptosis in human HepG2 cells assessed as chromatin condensation at cytotoxic IC50 after 72 hrs by Hoechst staining based fluorescence microscopic analysis; format: functional, cell-based
HepG2 [34] = assay: Induction of apoptosis in human HepG2 cells assessed as loss of nuclear architecture at cytotoxic IC50 after 72 hrs by Hoechst staining based fluorescence microscopic analysis; format: functional, cell-based
HepG2 [35] = assay: Induction of apoptosis in human HepG2 cells assessed as disruption of cell membrane integrity at cytotoxic IC50 after 72 hrs by Hoechst staining based fluorescence microscopic analysis; format: functional

SMILES	IC50 [1] [µM]	Ratio IC50 (HepG2 [2])	Activity [3] [%]	Activity [4] [%]	Activity [5] [%]	Activity (HT-29 [6]) [%]	Activity (HT-29 [7]) [%]	Activity (HT-29 [8]) [%]	Activity (HepG2 [9]) [%]	Activity (HepG2 [10]) [%]	Activity (HepG2 [11]) [%]	Activity (HT-29 [12]) [%]	Activity (HT-29 [13]) [%]	Activity (HT-29 [14]) [%]	Activity (HepG2 [15]) [%]	Activity (HepG2 [16]) [%]	Activity (HepG2 [17]) [%]	Activity [18] [%]	Activity [19] [%]	Activity (HT-29 [20]) [%]	other results
COCCOCCOCC(=O)O[C@@H]1C[C@]2(C)[C@H]3CC=C4[C@@H]5CC(C)(C)CC[C@]5(C(=O)O)CC[C@@]4(C)[C@]3(C)CC[C@H]2C(C)(C)[C@H]1OC(=O)COCCOCCOC	48.4	1.7	11.1	32.8	0	59.75	0.15	0	55.7	29.1	0.4	94.28	4.97	0.76	58.19	26.7	15.45	75.05	24.9	94.3	Activity (HepG2 [21]): 56.7%; Activity (B16-F10 [22]): Active; Activity (B16-F10 [23]): Active; Activity (B16-F10 [24]): Active; Activity (B16-F10 [25]): Active; Activity (B16-F10 [26]): Active; Activity (B16-F10 [27]): Active; Activity (HT-29 [28]): Active; Activity (HT-29 [29]): Active; Activity (HT-29 [30]): Active; Activity (HepG2 [31]): Active; Activity (HepG2 [32]): Active; Activity (HepG2 [33]): Active; Activity (HepG2 [34]): Active; Activity (HepG2 [35]): Active
CC1(C)CC[C@]2(C(=O)NCCCOCCOCCOCCCN)CC[C@]3(C)C(=CC[C@@H]4[C@@]5(C)C[C@@H](O)[C@H](O)C(C)(C)[C@@H]5CC[C@]43C)[C@@H]2C1	11.4	12.9	0.9	60.25	0.2	61	7.6	0.2	19.75	33.05	0.4	79.78	7.12	13.1	40.22	50.45	9.34	48.05	51.95	63.1	Activity (HepG2 [21]): 59.2%; Activity (B16-F10 [22]): Active; Activity (B16-F10 [23]): Active; Activity (B16-F10 [24]): Active; Activity (B16-F10 [25]): Active; Activity (B16-F10 [26]): Active; Activity (B16-F10 [27]): Active; Activity (HT-29 [28]): Active; Activity (HT-29 [29]): Active; Activity (HT-29 [30]): Active; Activity (HepG2 [31]): Active; Activity (HepG2 [32]): Active; Activity (HepG2 [33]): Active; Activity (HepG2 [34]): Active; Activity (HepG2 [35]): Active
